The target in assay [1] is T1, human BACE1 (rhBACE1) (Homo sapiens, UniProt P56817). Nature of the assay: BACE1 fluorescence polarization (FP) competition binding assay with 5-TAMRA-BACE020 probe. To be noted: for IC50: competition with 3 nM 5-TAMRA-BACE020, 12 nM rhBACE1, pH 4.4. The protocol: BACE1 Fluorescence Polarization Competition Binding Assay.
BACE1 binding assays were carried out in a final volume of 10 μL per well in black 384-well microplates (Proxiplate-Plus; Perkin Elmer, Waltham, Mass.). A standard binding reaction, initiated by the addition of 5 μL 2× enzyme to 2.5 μL of 4× binding probe and […] of 4× inhibitor, contained 12 nM rhBACE1, 3 nM 5-TAMRA-[…] (SEQ ID NO: 16) (5-TAMRA-BACE020), 50 mM NaOAc, pH 4.4 with 0.1% CHAPS. The reaction was permitted to proceed towards equilibrium for 2 h at ambient temperature prior to fluorescence polarization measurement using Envision (Perkin Elmer). The parallel and perpendicular fluorescent emissions measured in each well at 595 nm (excitation 531 nm polarized light) were used to determine the milli-polarization level (mP) using the following formula: mP=1000*(S-G*P)/(S+G*P) where S=parallel emission, P=perpendicular emission and G=0.65. The mP value in each well was plotted as a function of inhibitor concentration and the 50% inhibition (IC50) values were determined using a nonlinear least squares fit of the data to a four parameter equation using Prism 5.0 software (GraphPad Software, San Diego, Calif.). 5-TAMRA-labeled BACE020 was purchased from American Peptide Company, Inc (Sunnyvale, Calif.) and solubilized in DMSO to 100 mM for storage.
The affinities of BACE1 peptide ligands were measured using the abovementioned competition binding FP assay for determining IC50 values with serially diluted peptides. A Caliper assay was used to measure the inhibition of BACE1 enzymatic activity by peptide ligands. […] Furthermore, the IC50 values measured by the Caliper assay for peptides BACE017-021 and BACE025-028 are consistent with those measured by the HTRF assay.
(In general: In fluorescence polarisation assays a small probe gives low polarisation when free and higher when bound to something large.)
Target sequence in this assay (P56817 46-501): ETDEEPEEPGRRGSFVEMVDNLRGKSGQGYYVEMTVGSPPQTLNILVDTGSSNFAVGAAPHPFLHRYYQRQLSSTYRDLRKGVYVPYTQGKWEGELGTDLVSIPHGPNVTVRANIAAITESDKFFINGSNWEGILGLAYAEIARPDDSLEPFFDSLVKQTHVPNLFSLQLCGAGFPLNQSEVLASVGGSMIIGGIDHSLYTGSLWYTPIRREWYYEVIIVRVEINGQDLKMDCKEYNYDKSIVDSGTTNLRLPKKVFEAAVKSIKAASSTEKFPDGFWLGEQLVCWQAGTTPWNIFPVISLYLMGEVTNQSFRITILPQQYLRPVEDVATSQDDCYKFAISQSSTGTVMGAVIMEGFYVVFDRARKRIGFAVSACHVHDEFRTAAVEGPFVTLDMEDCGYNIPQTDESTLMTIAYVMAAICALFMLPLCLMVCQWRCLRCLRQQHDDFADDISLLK

The target of assay [2] is T1, human BACE1 (rhBACE1). Put plainly: Caliper BACE1 activity assay (microfluidic capillary electrophoresis). The format is biochemical. The arrangement: containing human BACE1 (extracellular domain). The settings on record: for IC50: 12 nM rhBACE1, 1 μM FAM-substrate, pH 4.4. The method, then:
An MCE assay reactions can be carried out in a standard enzymatic reaction, initiated by the addition of substrate to enzyme and 4× compound, containing human BACE1 (extracellular domain), amyloid precursor protein beta secretase active site peptide (FAM-[…]-CONH2 (SEQ ID NO: 20)), 50 mM NaOAc pH 4.4 and 0.1% CHAPS. After incubation for 60 minutes at ambient temperature, the product and substrate in each reaction is separated using a 12-sipper microfluidic chip analyzed on an LC3000® (both, Caliper Life Sciences). The separation of product and substrate is optimized by choosing voltages and pressure using the manufacturer's optimization software. Substrate conversion is calculated from the electrophoregram using HTS Well Analyzer software (Caliper Life Sciences).
BACE1, BACE2 and Cathepsin D Activity Assay Using Microfluidic Capillary Electrophoresis (MCE).
BACE1, BACE2, and Cathepsin D reactions were carried out in a final volume of 20 μl per well in a 384-well microplate using a Caliper LabChip 3000 (Hopkinton, Mass.). A standard enzymatic reaction, initiated by the addition of 10 μ12× substrate to 5 μl of 4× enzyme and 5 μl of 4× peptide or small molecule inhibitor, contained 12 nM rhBACE1, 1 μM FAM-[…]-amide (SEQ ID NO: 20), 50 mM NaOAc, pH 4.4, 0.1% CHAPS. The same reaction conditions were used for rhBACE2 (5 nM) and Cathepsin D (6 nM) (Cat. No. 219394; EMD Biosciences, San Diego, Calif.). After incubation for 60 min at room temperature, the product and substrate in each reaction were separated using a 12-sipper microfluidic chip. Separation of product and substrate was optimized by choosing voltages and pressure using the Caliper Optimizer software. The separation buffer contained 100 mM HEPES, pH 7.2, 0.015% Brij-35, 0.1% Coating Reagent #3, 10 mM EDTA and 5% DMSO. The separation conditions used a downstream voltage of −500 V, an upstream voltage of −2250 V, and a screening pressure of −1.2 psi. The product and substrate fluorescence was excited at 488 nm and detected at 530 nm. Substrate conversion was calculated from the electrophoregram using the Caliper HTS Well Analyzer software.
Target sequence in this assay (P56817 46-457 limits assumed): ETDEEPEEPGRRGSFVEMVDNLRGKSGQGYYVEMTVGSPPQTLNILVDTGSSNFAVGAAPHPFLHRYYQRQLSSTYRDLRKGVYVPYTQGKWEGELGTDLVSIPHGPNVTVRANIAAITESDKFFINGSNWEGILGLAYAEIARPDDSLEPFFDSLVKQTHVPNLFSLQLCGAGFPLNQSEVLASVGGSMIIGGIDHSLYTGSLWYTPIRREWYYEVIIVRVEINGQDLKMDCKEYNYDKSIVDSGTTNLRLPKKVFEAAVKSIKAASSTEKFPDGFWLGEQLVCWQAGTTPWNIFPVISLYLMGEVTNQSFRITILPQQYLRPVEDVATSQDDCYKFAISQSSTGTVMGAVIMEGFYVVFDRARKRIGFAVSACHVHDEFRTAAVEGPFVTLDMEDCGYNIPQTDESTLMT

Positions of bridges follow the written chain, without caps; N, C: chain ends. Residues, ends and D or L forms follow the SMILES beside them. Where only a bound is given, the exact number is not on record here.

Take `CC[C@H](C)[C@@H]1NC(=O)CNC(=O)[C@H](CC(C)C)NC(=O)[C@H](CC(C)C)NC(=O)[C@H](CCCNC(=N)N)NC(=O)[C@@H](NC(=O)[C@H](Cc2ccc(O)cc2)NC(=O)[C@H](CCSC)NC(=O)[C@H](CO)NC(=O)[C@H](CCC(=O)O)NC(=O)[C@H](CCC(=O)O)NC(C)=O)CSSC[C@@H](C(=O)NCC(N)=O)NC(=O)CNC1=O` [BACE029] (Ac-EESMYCRLLGIGCG-NH2; disulfide 6-13): the IC50 (as a rule, the concentration needed to halve the response being measured) on human BACE1 (rhBACE1) [1] worked out at 12 nM; on human BACE1 (rhBACE1) [2], 13 ± 8 nM.
Take `CC[C@H](C)[C@@H]1NC(=O)CNC(=O)[C@H](CC(C)C)NC(=O)[C@H](CC(C)C)NC(=O)[C@H](CCCNC(=N)N)NC(=O)[C@@H](NC(=O)[C@H](Cc2ccc(O)cc2)NC(=O)[C@H](CCSC)NC(=O)[C@H](CO)NC(C)=O)CSSC[C@@H](C(=O)NCC(N)=O)NC(=O)CNC1=O` [BACE031] (Ac-SMYCRLLGIGCG-NH2; disulfide 4-11): the “weakening of affinity relative to BACE020” value on human BACE1 (rhBACE1) [1] (FP binding assay) is 3-4 fold. Further, the “weakening of inhibitory activity relative to BACE020” value on human BACE1 (rhBACE1) [2] (Caliper activity assay) is on record as 3-4 fold.
Take `CC[C@H](C)[C@@H]1NC(=O)CNC(=O)[C@H](CC(C)C)NC(=O)[C@H](CC(C)C)NC(=O)[C@H](CCCNC(=N)N)NC(=O)[C@@H](NC(=O)[C@H](Cc2ccc(O)cc2)NC(=O)[C@H](CCSC)NC(C)=O)CSSC[C@@H](C(=O)NCC(N)=O)NC(=O)CNC1=O` [BACE032] (Ac-MYCRLLGIGCG-NH2; disulfide 3-10): the IC50 at human BACE1 (rhBACE1) [1] was more than 10000 nM.
Same read-out and setting: the value for `CC[C@H](C)[C@@H]1NC(=O)CNC(=O)[C@H](CC(C)C)NC(=O)[C@H](CC(C)C)NC(=O)[C@H](CCCNC(=N)N)NC(=O)[C@@H](NC(=O)[C@H](Cc2ccc(O)cc2)NC(C)=O)CSSC[C@@H](C(=O)NCC(N)=O)NC(=O)CNC1=O` [BACE033] (Ac-YCRLLGIGCG-NH2; disulfide 2-9) was more than 10000 nM; that for `CC[C@H](C)[C@@H]1NC(=O)CNC(=O)[C@H](CC(C)C)NC(=O)[C@H](CC(C)C)NC(=O)[C@H](CCCNC(=N)N)NC(=O)[C@@H](NC(C)=O)CSSC[C@@H](C(=O)NCC(N)=O)NC(=O)CNC1=O` [BACE034] (Ac-CRLLGIGCG-NH2; disulfide 1-8) was more than 10000 nM.
The molecule `CC[C@H](C)[C@@H]1NC(=O)CNC(=O)[C@H](CC(C)C)NC(=O)[C@H](CC(C)C)NC(=O)[C@H](CCCNC(=N)N)NC(=O)[C@@H](NC(=O)[C@H](Cc2ccc(O)cc2)NC(=O)[C@H](CCSC)NC(=O)[C@H](CO)NC(=O)[C@H](CCC(=O)O)NC(=O)[C@H](CCC(=O)O)NC(=O)[C@H](C)NC(C)=O)CSSC[C@@H](C(=O)NCC(N)=O)NC(=O)CNC1=O` [BACE042] (Ac-AEESMYCRLLGIGCG-NH2; disulfide 7-14) returned an IC50 at human BACE1 (rhBACE1) [2] of 12 ± 8 nM.
On the same count and under the same terms, next, `CC[C@H](C)[C@@H]1NC(=O)CNC(=O)[C@H](CC(C)C)NC(=O)[C@H](CC(C)C)NC(=O)[C@H](CCCNC(=N)N)NC(=O)[C@@H](NC(=O)[C@H](Cc2ccc(O)cc2)NC(=O)[C@H](CCSC)NC(=O)[C@H](CO)NC(=O)[C@H](CCC(=O)O)NC(=O)[C@H](C)NC(=O)[C@H](CC(N)=O)NC(C)=O)CSSC[C@@H](C(=O)NCC(N)=O)NC(=O)CNC1=O` [BACE043] (Ac-NAESMYCRLLGIGCG-NH2; disulfide 7-14): 13 ± 2 nM.
For the molecule `CC[C@H](C)[C@@H]1NC(=O)CNC(=O)[C@H](CC(C)C)NC(=O)[C@H](CC(C)C)NC(=O)[C@H](C)NC(=O)[C@@H](NC(=O)[C@H](Cc2ccc(O)cc2)NC(=O)[C@H](CCSC)NC(=O)[C@H](CO)NC(=O)[C@H](CCC(=O)O)NC(=O)[C@H](CCC(=O)O)NC(=O)[C@H](CC(N)=O)NC(C)=O)CSSC[C@@H](C(=O)NCC(N)=O)NC(=O)CNC1=O` [BACE048] (Ac-NEESMYCALLGIGCG-NH2; disulfide 7-14), the IC50 at human BACE1 (rhBACE1) [1] and against human BACE1 (rhBACE1) [2] was more than 10000 nM throughout.
In the case of `CC[C@H](C)[C@@H]1NC(=O)[C@H](C)NC(=O)[C@H](CC(C)C)NC(=O)[C@H](CC(C)C)NC(=O)[C@H](CCCNC(=N)N)NC(=O)[C@@H](NC(=O)[C@H](Cc2ccc(O)cc2)NC(=O)[C@H](CCSC)NC(=O)[C@H](CO)NC(=O)[C@H](CCC(=O)O)NC(=O)[C@H](CCC(=O)O)NC(=O)[C@H](CC(N)=O)NC(C)=O)CSSC[C@@H](C(=O)NCC(N)=O)NC(=O)CNC1=O` [BACE051] (Ac-NEESMYCRLLAIGCG-NH2; disulfide 7-14), on human BACE1 (rhBACE1) [2], the IC50 stood at 18 ± 5 nM.
Still for that read-out and setting: next, `CC[C@H](C)[C@@H]1NC(=O)CNC(=O)[C@H](CC(C)C)NC(=O)[C@H](CC(C)C)NC(=O)[C@H](CCCNC(=N)N)NC(=O)[C@@H](NC(=O)[C@H](Cc2ccc(O)cc2)NC(=O)[C@H](CCSC)NC(=O)[C@H](CO)NC(=O)[C@H](CCC(=O)O)NC(=O)[C@H](CCC(=O)O)NC(=O)[C@H](CC(N)=O)NC(C)=O)CSSC[C@@H](C(=O)NCC(N)=O)NC(=O)[C@H](C)NC1=O` [BACE053] (Ac-NEESMYCRLLGIACG-NH2; disulfide 7-14): 7 nM.
Regarding `CC[C@H](C)[C@@H]1NC(=O)CNC(=O)[C@H](CC(C)C)NC(=O)[C@H](CC(C)C)NC(=O)[C@H](CCCNC(=N)N)NC(=O)[C@@H](NC(=O)[C@H](Cc2ccc(O)cc2)NC(=O)[C@H](CCSC)NC(=O)[C@H](CO)NC(=O)[C@H](CCC(=O)O)NC(=O)[C@H](CCC(=O)O)NC(=O)[C@H](CC(N)=O)NC(C)=O)CSSC[C@@H](C(=O)N[C@@H](C)C(N)=O)NC(=O)CNC1=O` [BACE054] (Ac-NEESMYCRLLGIGCA-NH2; disulfide 7-14), the IC50 was found to be 12 ± 3 nM on human BACE1 (rhBACE1) [1] and 7 ± 4 nM on human BACE1 (rhBACE1) [2].
Take `CC[C@H](C)[C@@H]1NC(=O)CNC(=O)[C@H](CC(C)C)NC(=O)[C@H](CC(C)C)NC(=O)[C@H](CCCNC(=N)N)NC(=O)[C@@H](NC(=O)[C@H](Cc2ccccc2)NC(=O)[C@H](CCSC)NC(=O)[C@H](CO)NC(=O)[C@H](CCC(=O)O)NC(=O)[C@H](CCC(=O)O)NC(=O)[C@H](CC(N)=O)NC(C)=O)CSSC[C@@H](C(=O)NCC(N)=O)NC(=O)CNC1=O` [BACE055] (Ac-NEESMFCRLLGIGCG-NH2; disulfide 7-14): it took 11 ± 2 nM to reach half-maximal inhibition at human BACE1 (rhBACE1) [2] (IC50).
Take `CC[C@H](C)[C@@H]1NC(=O)CNC(=O)[C@H](CC(C)C)NC(=O)[C@H](CC(C)C)NC(=O)[C@H](CCCNC(=N)N)NC(=O)[C@@H](NC(=O)[C@H](Cc2ccc(O)cc2)NC(=O)[C@H](CCSC)NC(=O)[C@H](Cc2c[nH]cn2)NC(=O)[C@H](CCC(=O)O)NC(=O)[C@H](CCC(=O)O)NC(=O)[C@H](CC(N)=O)NC(C)=O)CSSC[C@@H](C(=O)NCC(N)=O)NC(=O)CNC1=O` [BACE056] (Ac-NEEHMYCRLLGIGCG-NH2; disulfide 7-14): the IC50 against human BACE1 (rhBACE1) [2] came out at 3570 ± 3650 nM.
For `CC[C@H](C)[C@@H]1NC(=O)CNC(=O)[C@H](CC(C)C)NC(=O)[C@H](CC(C)C)NC(=O)[C@H](C)NC(=O)[C@@H](NC(=O)[C@H](Cc2ccc(O)cc2)NC(=O)[C@H](CCSC)NC(=O)[C@H](CO)NC(=O)[C@H](CCC(=O)O)NC(C)=O)CSSC[C@@H](C(=O)NCC(N)=O)NC(=O)CNC1=O` [BACE057] (Ac-ESMYCALLGIGCG-NH2; disulfide 5-12), the concentration for half-maximal inhibition (IC50) on human BACE1 (rhBACE1) [1] and against human BACE1 (rhBACE1) [2] was more than 10000 nM in each case.
On to `CC[C@H](C)[C@H](NC(=O)[C@H](Cc1ccccc1)NC(=O)[C@H](Cc1ccc(O)cc1)NC(=O)[C@@H]1CCCN1C(=O)[C@H](Cc1ccc(O)cc1)NC(C)=O)C(=O)N1CCC[C@H]1C(=O)N[C@@H](CC(C)C)C(N)=O` [BMS4, reference compound], for which the IC50 at human BACE1 (rhBACE1) [1] is more than 10000 nM.
In the case of Ac-KEESIYSRLMGLGSG-NH2 [BACE025], the IC50 on human BACE1 (rhBACE1) [1] and against human BACE1 (rhBACE1) [2] was not below 10000 nM in each case.
For Ac-PEESLYSRLLALGSG-NH2 [BACE028], the IC50 at human BACE1 (rhBACE1) [1] and against human BACE1 (rhBACE1) [2] was more than 10000 nM each time.

Values taken from patent US9624269B2, “Peptide inhibitors of BACE1” (GENENTECH, INC., priority 2011, dated 2017).
